Reference: publication PMC9663854, “AadA36, a novel chromosomal aminoglycoside nucleotidyltransferase from a clinical isolate of Providencia stuartii” (Frontiers in Microbiology, 2022)

System: T1, AadA36
T1 construct: N-terminal His-tag removed with thrombin
Assay: coupled NADPH assay at […] nm (UDP-glucose pyrophosphorylase, phosphoglucomutase, glucose-6-phosphate dehydrogenase), Michaelis-Menten fit
Format: biochemical, Providencia stuartii
Settings: 50 mM HEPES pH 7.5, 10 mM MgCl2, 1 mM ATP, 0.2 mM DTT, substrate 5-150 μM

Compound: [H]/N=C(/N)N[C@H]1[C@H](O)[C@@H](O)[C@H](O[C@@H]2O[C@@H](C)[C@](O)(C=O)[C@H]2O[C@@H]2O[C@@H](CO)[C@H](O)[C@@H](O)[C@@H]2NC)[C@@H](N/C(N)=N\[H])[C@@H]1O [streptomycin]
- Km: 59.5 ± 14.1 µM

Compound: CN[C@@H]1[C@H](O)[C@H](NC)[C@H]2O[C@@]3(O)C(=O)C[C@@H](C)O[C@H]3O[C@@H]2[C@H]1O [spectinomycin]
- Km: 49.1 ± 12.8 µM
